Here are results for 1 molecule from patent US20250283056A1, “MODIFIED O-[…] USEFUL FOR PRODUCTION OF O-METHYLATED PHENOLIC NATURAL PRODUCTS” (The University of Hong Kong, priority 2024, published 2025).

The test system of one assay is SbSOMT I144N/F337N. The assay can be described thus: Catalytic assay, SbSOMT I144N/F337N mutant protein. The class given is biochemical, Sorghum bicolor. To be noted: resveratrol, one-hour incubation. From the text: (§1) Data are expressed as yields relative to that of wild-type SbSOMT protein (WT). […] Data are expressed as yields relative to that of wild-type SbSOMT protein (WT). Values refer to means±SD (n=3). Asterisks indicate significant differences between mutant protein and WT (Student's t-test, ***: p<0.001). Tricin was used as an internal standard for quantitation. […] Dots represent individual data points.
(§2) Desired mutations of SbSOMT were introduced into its construct using specific primers (Table 11). Expression constructs were transformed into Rosetta™ (DE3) competent Escherichia coli cells (Novagen, Germany). Protein expression was induced with 0.1 mM Isopropyl-β-thiogalactopyranoside (IPTG) overnight at 16° C. E. coli cells were harvested, resuspended in lysis buffer (20 mM Tris buffer pH 7.9, 300 mM NaCl, 2.5 mM β-mercaptoethanol), and lysed by sonication. […]
(§3) For initial screening of OMT activities, purified OMT enzymes (10 μg) were incubated in 100 mM HEPES buffer (pH 7.9), 200 μM S-adenosyl-L-methionine (SAM) and 100 μM of phenylpropanoid or stilbene substrates (final volume 200 μl) at 30° C. for 2 h. Enzyme kinetics were determined by incubating 1 μg protein with 100 mM HEPES buffer (pH 7.9), 300 μM SAM, and stilbene concentrations ranging from 5 to 200 μM at 30° C. for 5 min. […]

The target of assay [1] is T1, SbCOMT (Sorghum bicolor, UniProt Q84X55). The assay can be described thus: In vitro OMT enzyme assay, recombinant SbCOMT. The class given is biochemical. The note with it: two-hour incubation with 100 μM resveratrol. As to the method: (§4) To screen for OMT activities, purified stilbene products of enzyme assays were separated by a Synergi C18 column (Synergi 4μ Fusion RP 80 Å, 50×2 mm, Phenomenex, USA) under a flow rate of 0.5 ml min-1 over a 6 min linear gradient of 10%-90% B (described below). […] Meanwhile, purified phenylpropanoid products of enzyme assays were separated on the same column connected to a HP1100 series HPLC system (Agilent Technologies, USA) linked to an AP3200-QTRAP mass spectrometer (AB Sciex, China) operating under the multiple-reaction-monitoring (MRM) mode. To quantify these products, assay products were separated on a Kinetex C18 column (Kinetex 2.6 μm C18 100 Å, 100×2.1 mm, Phenomenex, USA) connected to a HP1100 series HPLC system (Agilent Technologies, USA) linked to an AP3200-QTRAP mass spectrometer (AB Sciex, China) operating under the multiple-reaction-monitoring (MRM) mode. A linear gradient of 10%-90% B under a flow rate of 0.3 ml min-1 over 6 min was used to further enhance sensitivity. Total metabolites from all plant tissues were separated by the same Kinetex C18 column connected to the X500R QTOF-HRMS system. A linear gradient under a flow rate of 0.3 ml min-1 over a 20 min linear gradient of 10%-90% B was used.
(§5) Reaction products were extracted twice with ethyl acetate. […] All reactions were done in triplicates.

A further assay has as its target SbSOMT (Sorghum bicolor, UniProt A0A1B6PFV1). The assay can be described thus: Isothermal titration calorimetry (ITC), SbSOMT wild type. The class given is binding. As to the method:
(§6) Isothermal titration calorimetry (ITC) assays were conducted with MicroCal iTC200 (Malvern Panalytical, UK). […] Both cell sample and titrant were equilibrated to ITC buffer consisting of 100 mM HEPES pH 7.9 with 2.5% (v/v) PEG 400. For ITC assays involving pterostilbene, PEG 400 concentration was increased to 5% (v/v). Each run incorporated an initial delay of 60 s prior to the first injection (0.5 μl) and spaced 150 s between the subsequent 19 injections (2.0 μl) at 25° C. During the runs, the cell was continuously stirred at 750 rpm by flat paddle. Results were analysed based on the 2nd to 20th injections using the Origin (MicroCal Software, USA) and PEAQ-ITC software (Malvern Panalytical, UK).

Assay [2] deals with T2, SbSOMT E342A (Sorghum bicolor, UniProt A0A1B6PFV1, E342A). The note with it: SbSOMT E342A incubated with resveratrol, one hour.
Text: as §1, §2, §3

Assay [3] has as its target T3, SbSOMT D283A (Sorghum bicolor, UniProt A0A1B6PFV1, D283A). To be noted: SbSOMT D283A incubated with resveratrol, one hour.
Text: as §1, §2, §3

Assay [4] concerns the target T1, SbCOMT. The assay can be described thus: Isothermal titration calorimetry (ITC), SbCOMT wild type. The class given is binding. As to the method:
as §6

In the next assay the test system is SbOMT4. Description: In vitro OMT enzyme assay, recombinant SbOMT4. The class given is biochemical, Sorghum bicolor. As to the method:
as §4, §5

Assay [5] concerns the target T2, SbSOMT E342A. Description: biochemical. The protocol: (§7) Desired mutations of SbSOMT were introduced into its construct using specific primers (Table 11). Expression constructs were transformed into Rosetta™ (DE3) competent Escherichia coli cells (Novagen, Germany). Protein expression was induced with 0.1 mM Isopropyl-β-thiogalactopyranoside (IPTG) overnight at 16° C. E. coli cells were harvested, resuspended in lysis buffer (20 mM Tris buffer pH 7.9, 300 mM NaCl, 2.5 mM β-mercaptoethanol), and lysed by sonication. Crude proteins were loaded onto a HisTrap HP column (Cytiva, USA) connected to a AKTA pure chromatography system (Cytiva, USA). Column was washed with 15 column volumes of lysis buffer with 50 mM imidazole. Proteins were eluted over a gradient of 50-500 mM imidazole. Eluate fractions with the target OMT were pooled, digested with TEV protease, and simultaneously dialyzed against a low salt buffer (20 mM Tris pH 7.9, 50 mM NaCl, 2.5 mM β-mercaptoethanol) overnight at 4° C. The dialyzed sample was filtered and flowed through HisTrap to remove His-tagged components. The flowthrough was then loaded to HiTrap Q FF columns (Cytiva, USA) over a gradient of 50-1000 mM NaCl. Polishing was achieved via size-exclusion chromatography using the storage buffer (100 mM HEPES pH 7.9, 100 mM NaCl) as mobile phase. SsSTS was purified under the same conditions except that the pH was adjusted to 7.0 for all buffers. Proteins were concentrated by ultrafiltration and flash frozen for storage at −80° C.
as §6

For assay [6], the target named is T3, SbSOMT D283A. The assay can be described thus: biochemical. The protocol:
as §7, §6

The next assay has as its target SbSOMT I144N (Sorghum bicolor, UniProt A0A1B6PFV1, I144N). The assay can be described thus: biochemical. As to the method:
as §7, §6

The next assay has as its target SbSOMT H282N/D283A (Sorghum bicolor, UniProt A0A1B6PFV1, D283A/H282N). Description: biochemical. As to the method: as §7, §6

Read-outs that look alike come from different tables or passages of the source.

Consider `Oc1ccc(C=Cc2cc(O)cc(O)c2)cc1` [Resveratrol, resveratrol], for which the SOMT activities entry with SbSOMT I144N/F337N was “complete abolishment of SOMT activities”. The “resveratrol 3,5-bis-O-methylation activities” value at SbCOMT [1] is “poor resveratrol 3,5-bis-O-methylation activities”. Besides, the dissociation constant (Kd) on SbSOMT is 4.69 µM; at SbCOMT [4], 1.55 µM; on SbSOMT E342A [5], 11.1 ± 0.75 µM; on SbSOMT D283A [6] it was 1.31 µM; on SbSOMT I144N, 152 ± 31.1 µM; on SbSOMT I144N (SbSOMT mutant I144N, N fixed at 0.6 to estimate the Kd, ± SE), “significantly weakened binding”. This molecule also yielded a dissociation constant (Kd) at SbSOMT H282N/D283A of 32.9 µM. In addition, the pterostilbene formation result on SbSOMT E342A [2] and at SbSOMT D283A [3] was “failed to generate pterostilbene” throughout. The “SOMT activities with resveratrol as substrate” value in the assay with SbOMT4 was “minimal SOMT activities”. Besides, the “Stoichiometry, N” value at SbSOMT E342A [5] (SbSOMT mutant E342A, ITC) came out at 0.75 ± 0.01; on SbSOMT D283A [6] (SbSOMT mutant D283A, ITC) it was 0.58 ± 0.01; on SbSOMT H282N/D283A (SbSOMT mutant H282N/D283A, ITC), 0.61 ± 0.17.
